Source: ChEMBL document CHEMBL4507311, “Data for DCP probe A-1155463” (2021)

Experiments:
[1] = target: Mitogen-activated protein kinase 7 (Homo sapiens) (UniProt Q13164); settings: Compound concentration 1000.0 nM
[2] = target: Ephrin type-A receptor 6 (Homo sapiens) (UniProt Q9UF33); settings: Compound concentration 1000.0 nM
[3] = target: T1, 5-hydroxytryptamine receptor 2C (Homo sapiens) (UniProt P28335); settings: Compound concentration 10.0 uM
T1 sequence (whole entry): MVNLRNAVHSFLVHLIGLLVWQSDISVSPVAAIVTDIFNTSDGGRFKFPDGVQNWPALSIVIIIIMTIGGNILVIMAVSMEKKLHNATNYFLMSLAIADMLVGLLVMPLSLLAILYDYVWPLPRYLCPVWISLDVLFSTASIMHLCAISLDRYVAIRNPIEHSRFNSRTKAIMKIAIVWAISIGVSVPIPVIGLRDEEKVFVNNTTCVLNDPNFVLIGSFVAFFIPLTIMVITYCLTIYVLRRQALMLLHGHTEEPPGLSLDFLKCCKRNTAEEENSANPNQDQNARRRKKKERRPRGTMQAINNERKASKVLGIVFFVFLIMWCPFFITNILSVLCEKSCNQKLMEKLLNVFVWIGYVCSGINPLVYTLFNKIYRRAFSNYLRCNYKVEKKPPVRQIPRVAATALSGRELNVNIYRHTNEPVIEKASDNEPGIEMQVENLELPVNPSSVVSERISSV

[4] = target: Ephrin type-B receptor 4 (Homo sapiens) (UniProt P54760); settings: Compound concentration 1000.0 nM
[5] = target: Bone morphogenetic protein receptor type-1B (Homo sapiens) (UniProt O00238); settings: Compound concentration 1000.0 nM
[6] = target: Protein-tyrosine kinase 2-beta (Homo sapiens) (UniProt Q14289); settings: Compound concentration 1000.0 nM
[7] = target: Serine/threonine-protein kinase D3 (Homo sapiens) (UniProt O94806); settings: Compound concentration 1000.0 nM
[8] = target: Serine/threonine-protein kinase TBK1 (Homo sapiens) (UniProt Q9UHD2); settings: Compound concentration 1000.0 nM
[9] = target: Macrophage colony-stimulating factor 1 receptor (Homo sapiens) (UniProt P07333); settings: Compound concentration 1000.0 nM
[10] = target: Receptor-interacting serine/threonine-protein kinase 2 (Homo sapiens) (UniProt O43353); settings: Compound concentration 1000.0 nM
[11] = target: STE20-like serine/threonine-protein kinase (Homo sapiens) (UniProt Q9H2G2); settings: Compound concentration 1000.0 nM
[12] = target: Tyrosine-protein kinase receptor UFO (Homo sapiens) (UniProt P30530); settings: Compound concentration 1000.0 nM
[13] = target: Ribosomal protein S6 kinase alpha-2 (Homo sapiens) (UniProt Q15349); settings: Compound concentration 1000.0 nM
[14] = tested on: Epidermal growth factor receptor (Homo sapiens), P00533 [G719C]; settings: Compound concentration 1000.0 nM
[15] = target: Tyrosine-protein kinase Mer (Homo sapiens) (UniProt Q12866); settings: Compound concentration 1000.0 nM
[16] = target: T2, Alpha-2B adrenergic receptor (Homo sapiens) (UniProt P18089); settings: Compound concentration 10.0 uM
T2 sequence (whole entry): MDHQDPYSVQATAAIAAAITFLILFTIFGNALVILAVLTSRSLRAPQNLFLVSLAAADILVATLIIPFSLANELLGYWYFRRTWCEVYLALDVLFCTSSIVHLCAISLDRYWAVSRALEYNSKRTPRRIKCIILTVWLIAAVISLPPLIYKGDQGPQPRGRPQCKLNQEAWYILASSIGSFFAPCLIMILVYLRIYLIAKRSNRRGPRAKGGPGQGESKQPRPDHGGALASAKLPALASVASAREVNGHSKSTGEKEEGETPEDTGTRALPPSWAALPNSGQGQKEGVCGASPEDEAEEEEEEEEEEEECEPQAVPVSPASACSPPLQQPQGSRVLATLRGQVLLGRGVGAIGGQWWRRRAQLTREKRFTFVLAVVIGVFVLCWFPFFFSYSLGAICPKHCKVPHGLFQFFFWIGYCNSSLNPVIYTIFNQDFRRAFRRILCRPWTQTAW

[17] = target: Tyrosine-protein kinase JAK1 (Homo sapiens) (UniProt P23458); settings: Compound concentration 1000.0 nM
[18] = target: Glycogen synthase kinase-3 beta (Homo sapiens) (UniProt P49841); settings: Compound concentration 1000.0 nM
[19] = target: 5-hydroxytryptamine receptor 1E (Homo sapiens) (UniProt P28566); settings: Compound concentration 10.0 uM
[20] = target: Ribosomal protein S6 kinase alpha-1 (Homo sapiens) (UniProt Q15418); settings: Compound concentration 1000.0 nM
[21] = target: Mitogen-activated protein kinase kinase kinase 3 (Homo sapiens) (UniProt Q99759); settings: Compound concentration 1000.0 nM
[22] = target: Ribosomal protein S6 kinase beta-1 (Homo sapiens) (UniProt P23443); settings: Compound concentration 1000.0 nM
[23] = target: Tyrosine-protein kinase Srms (Homo sapiens) (UniProt Q9H3Y6); settings: Compound concentration 1000.0 nM
Histamine H3 receptor = Histamine H3 receptor (Homo sapiens, UniProt Q9Y5N1); assay: GPCRScan assay: inhibition of H3; set-up: radioligand conc. used [nm] 0.5 – 1.0, parental cells HEK Flp-In
[24] = target: Peripheral plasma membrane protein CASK (Homo sapiens) (UniProt O14936); settings: Compound concentration 1000.0 nM
[25] = target: Vascular endothelial growth factor receptor 2 (Homo sapiens) (UniProt P35968); settings: Compound concentration 1000.0 nM
[26] = target: Non-receptor tyrosine-protein kinase TNK1 (Homo sapiens) (UniProt Q13470); settings: Compound concentration 1000.0 nM
[27] = target: Cyclin-dependent kinase 16 (Homo sapiens) (UniProt Q00536); settings: Compound concentration 1000.0 nM
[28] = target: Dual specificity mitogen-activated protein kinase kinase 6 (Homo sapiens) (UniProt P52564); settings: Compound concentration 1000.0 nM
[29] = target: Atypical kinase COQ8B, mitochondrial (Homo sapiens) (UniProt Q96D53); settings: Compound concentration 1000.0 nM
[30] = target: STE20/SPS1-related proline-alanine-rich protein kinase (Homo sapiens) (UniProt Q9UEW8); settings: Compound concentration 1000.0 nM
[31] = tested on: Tyrosine-protein kinase ABL1 (Homo sapiens), P00519 [T315I]; settings: Compound concentration 1000.0 nM
[32] = target: Serine/threonine-protein kinase MARK2 (Homo sapiens) (UniProt Q7KZI7); settings: Compound concentration 1000.0 nM

Dual specificity mitogen-activated protein kinase kinase 6 (Homo sapiens), sequence (P52564 whole entry): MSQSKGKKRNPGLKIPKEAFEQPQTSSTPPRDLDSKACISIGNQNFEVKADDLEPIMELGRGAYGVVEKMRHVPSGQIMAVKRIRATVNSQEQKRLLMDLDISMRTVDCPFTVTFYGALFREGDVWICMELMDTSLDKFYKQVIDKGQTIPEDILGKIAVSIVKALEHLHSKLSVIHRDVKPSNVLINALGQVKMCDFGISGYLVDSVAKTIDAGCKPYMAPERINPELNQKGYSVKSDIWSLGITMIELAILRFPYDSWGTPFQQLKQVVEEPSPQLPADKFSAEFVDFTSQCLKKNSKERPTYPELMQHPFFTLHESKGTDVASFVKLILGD
Receptor-interacting serine/threonine-protein kinase 2 (Homo sapiens), sequence (O43353 whole entry): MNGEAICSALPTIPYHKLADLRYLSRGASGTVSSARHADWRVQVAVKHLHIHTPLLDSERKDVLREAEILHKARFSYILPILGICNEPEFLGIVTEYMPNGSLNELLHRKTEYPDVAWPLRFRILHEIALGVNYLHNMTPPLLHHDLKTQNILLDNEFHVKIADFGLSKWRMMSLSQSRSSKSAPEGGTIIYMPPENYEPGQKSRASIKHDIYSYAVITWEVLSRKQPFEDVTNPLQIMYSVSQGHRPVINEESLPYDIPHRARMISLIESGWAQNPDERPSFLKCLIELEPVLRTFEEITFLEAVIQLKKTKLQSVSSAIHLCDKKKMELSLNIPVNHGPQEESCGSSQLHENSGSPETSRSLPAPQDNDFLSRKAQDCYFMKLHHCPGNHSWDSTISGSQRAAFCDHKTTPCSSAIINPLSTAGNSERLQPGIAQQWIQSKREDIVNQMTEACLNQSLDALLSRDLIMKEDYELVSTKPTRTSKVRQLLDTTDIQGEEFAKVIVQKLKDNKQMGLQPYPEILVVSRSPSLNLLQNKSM
Histamine H3 receptor, sequence (Q9Y5N1 whole entry): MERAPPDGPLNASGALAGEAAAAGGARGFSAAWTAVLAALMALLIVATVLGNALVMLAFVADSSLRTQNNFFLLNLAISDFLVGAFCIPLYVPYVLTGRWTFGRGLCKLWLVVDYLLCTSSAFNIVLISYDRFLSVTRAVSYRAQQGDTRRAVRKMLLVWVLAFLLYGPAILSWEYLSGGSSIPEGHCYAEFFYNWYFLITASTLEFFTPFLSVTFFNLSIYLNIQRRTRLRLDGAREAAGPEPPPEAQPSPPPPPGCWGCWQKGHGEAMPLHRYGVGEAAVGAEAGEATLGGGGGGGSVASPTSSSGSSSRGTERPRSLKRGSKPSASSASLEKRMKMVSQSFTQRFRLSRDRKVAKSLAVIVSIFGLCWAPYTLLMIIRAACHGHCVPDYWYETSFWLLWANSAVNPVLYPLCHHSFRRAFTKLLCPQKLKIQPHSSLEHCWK
Ephrin type-B receptor 4 (Homo sapiens), sequence (P54760 whole entry): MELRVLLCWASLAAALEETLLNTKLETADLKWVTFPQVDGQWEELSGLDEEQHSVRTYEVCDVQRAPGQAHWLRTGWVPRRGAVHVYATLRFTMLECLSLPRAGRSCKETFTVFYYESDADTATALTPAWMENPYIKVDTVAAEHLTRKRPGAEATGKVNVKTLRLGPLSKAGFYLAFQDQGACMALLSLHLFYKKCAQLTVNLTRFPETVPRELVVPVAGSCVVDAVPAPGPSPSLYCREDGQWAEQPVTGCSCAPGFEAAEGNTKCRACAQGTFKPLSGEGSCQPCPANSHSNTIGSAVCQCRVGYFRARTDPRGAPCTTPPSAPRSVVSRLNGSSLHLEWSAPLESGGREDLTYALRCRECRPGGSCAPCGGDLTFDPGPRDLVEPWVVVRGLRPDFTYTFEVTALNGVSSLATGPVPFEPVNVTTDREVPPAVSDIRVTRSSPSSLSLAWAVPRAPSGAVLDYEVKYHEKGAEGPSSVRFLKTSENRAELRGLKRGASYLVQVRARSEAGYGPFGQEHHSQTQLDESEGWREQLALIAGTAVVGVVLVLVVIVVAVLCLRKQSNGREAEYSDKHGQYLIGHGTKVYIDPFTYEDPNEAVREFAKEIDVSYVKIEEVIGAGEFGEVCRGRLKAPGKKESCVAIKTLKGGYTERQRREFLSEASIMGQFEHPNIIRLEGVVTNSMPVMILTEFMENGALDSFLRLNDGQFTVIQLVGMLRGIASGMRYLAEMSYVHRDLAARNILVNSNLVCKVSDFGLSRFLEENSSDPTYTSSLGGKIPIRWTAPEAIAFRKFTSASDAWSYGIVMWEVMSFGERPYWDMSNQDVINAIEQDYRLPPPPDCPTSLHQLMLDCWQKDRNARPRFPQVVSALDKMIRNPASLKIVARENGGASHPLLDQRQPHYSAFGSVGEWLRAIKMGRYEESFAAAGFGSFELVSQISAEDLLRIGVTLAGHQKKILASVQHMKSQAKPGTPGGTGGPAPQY
Atypical kinase COQ8B, mitochondrial (Homo sapiens), sequence (Q96D53 whole entry): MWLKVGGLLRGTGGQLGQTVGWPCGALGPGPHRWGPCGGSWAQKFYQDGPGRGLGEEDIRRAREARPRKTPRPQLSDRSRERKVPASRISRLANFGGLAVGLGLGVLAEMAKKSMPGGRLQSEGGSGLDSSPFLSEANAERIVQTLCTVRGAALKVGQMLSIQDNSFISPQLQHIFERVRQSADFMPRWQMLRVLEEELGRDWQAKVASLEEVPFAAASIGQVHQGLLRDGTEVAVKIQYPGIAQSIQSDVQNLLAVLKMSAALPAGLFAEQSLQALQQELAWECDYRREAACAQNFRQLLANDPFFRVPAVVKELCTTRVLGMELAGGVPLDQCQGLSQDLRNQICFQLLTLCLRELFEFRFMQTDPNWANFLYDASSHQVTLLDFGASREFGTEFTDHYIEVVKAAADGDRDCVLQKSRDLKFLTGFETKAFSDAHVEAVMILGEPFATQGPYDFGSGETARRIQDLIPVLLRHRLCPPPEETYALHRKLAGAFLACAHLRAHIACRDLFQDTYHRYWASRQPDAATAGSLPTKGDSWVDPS
Vascular endothelial growth factor receptor 2 (Homo sapiens), sequence (P35968 whole entry): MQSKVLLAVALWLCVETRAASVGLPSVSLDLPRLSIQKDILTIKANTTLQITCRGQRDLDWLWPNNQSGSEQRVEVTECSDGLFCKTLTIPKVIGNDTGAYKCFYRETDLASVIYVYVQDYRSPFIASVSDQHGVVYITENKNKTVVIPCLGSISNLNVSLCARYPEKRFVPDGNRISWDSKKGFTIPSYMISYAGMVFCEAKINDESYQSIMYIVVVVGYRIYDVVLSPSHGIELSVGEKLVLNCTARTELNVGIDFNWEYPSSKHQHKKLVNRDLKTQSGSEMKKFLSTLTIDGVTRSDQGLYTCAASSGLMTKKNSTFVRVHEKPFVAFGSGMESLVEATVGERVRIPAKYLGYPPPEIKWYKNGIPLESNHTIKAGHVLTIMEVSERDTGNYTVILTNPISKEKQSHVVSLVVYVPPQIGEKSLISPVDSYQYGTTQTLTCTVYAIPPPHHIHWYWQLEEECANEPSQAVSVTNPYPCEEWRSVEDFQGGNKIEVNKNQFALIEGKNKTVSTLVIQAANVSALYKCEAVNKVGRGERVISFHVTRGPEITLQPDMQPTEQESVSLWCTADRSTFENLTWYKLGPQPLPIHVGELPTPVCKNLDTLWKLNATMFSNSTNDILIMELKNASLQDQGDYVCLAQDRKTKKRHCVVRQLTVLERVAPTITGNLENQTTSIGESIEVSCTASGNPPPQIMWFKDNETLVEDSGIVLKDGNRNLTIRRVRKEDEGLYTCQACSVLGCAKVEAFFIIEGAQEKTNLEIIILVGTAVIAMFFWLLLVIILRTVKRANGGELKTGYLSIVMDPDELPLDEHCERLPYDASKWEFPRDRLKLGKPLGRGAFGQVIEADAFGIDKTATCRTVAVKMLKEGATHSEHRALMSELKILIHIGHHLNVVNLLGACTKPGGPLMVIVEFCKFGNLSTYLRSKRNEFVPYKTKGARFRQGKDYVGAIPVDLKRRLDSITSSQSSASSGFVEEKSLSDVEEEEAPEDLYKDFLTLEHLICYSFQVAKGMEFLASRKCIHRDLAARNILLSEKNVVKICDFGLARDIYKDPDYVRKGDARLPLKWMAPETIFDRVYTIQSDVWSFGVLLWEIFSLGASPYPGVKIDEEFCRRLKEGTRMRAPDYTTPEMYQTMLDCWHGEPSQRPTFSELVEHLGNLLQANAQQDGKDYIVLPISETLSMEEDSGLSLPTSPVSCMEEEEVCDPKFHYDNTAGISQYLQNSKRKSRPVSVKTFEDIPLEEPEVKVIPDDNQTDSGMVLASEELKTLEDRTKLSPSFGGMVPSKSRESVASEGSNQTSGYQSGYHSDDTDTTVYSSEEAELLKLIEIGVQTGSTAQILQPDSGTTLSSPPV
Bone morphogenetic protein receptor type-1B (Homo sapiens), sequence (O00238 whole entry): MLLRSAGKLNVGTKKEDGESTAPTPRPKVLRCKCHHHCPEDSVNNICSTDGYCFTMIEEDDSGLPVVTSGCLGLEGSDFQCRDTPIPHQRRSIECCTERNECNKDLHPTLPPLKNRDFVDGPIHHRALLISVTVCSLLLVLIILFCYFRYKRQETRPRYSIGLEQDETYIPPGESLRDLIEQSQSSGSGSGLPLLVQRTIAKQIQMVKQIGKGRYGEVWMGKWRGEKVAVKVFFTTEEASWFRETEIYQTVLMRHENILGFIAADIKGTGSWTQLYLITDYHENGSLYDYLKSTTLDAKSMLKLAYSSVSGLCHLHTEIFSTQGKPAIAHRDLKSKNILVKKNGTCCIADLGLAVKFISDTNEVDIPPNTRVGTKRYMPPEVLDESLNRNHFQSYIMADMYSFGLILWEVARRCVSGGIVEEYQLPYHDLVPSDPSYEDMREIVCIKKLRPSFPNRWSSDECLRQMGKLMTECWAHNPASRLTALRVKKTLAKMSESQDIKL

CN(C)CC#Cc1ccc(OCCCc2sc(N3CCc4cccc(C(=O)Nc5nc6ccccc6s5)c4C3)nc2C(=O)O)c(F)c1 [A-1155463]
1810 nM: Ki (Histamine H3 receptor)
inactive: residual activity [1] 99% | residual activity [2] 100% | inhibition [3] 1.97% | residual activity [4] 100% | residual activity [5] 84% | residual activity [6] 100% | residual activity [7] 93% | residual activity [8] 100% | residual activity [9] 100% | residual activity [10] 100% | residual activity [11] 100% | residual activity [12] 92% | residual activity [13] 94% | residual activity [14] 91% | residual activity [15] 100% | inhibition [16] 17.2% | residual activity [17] 100% | residual activity [18] 93% | inhibition [19] -4.32% | residual activity [20] 81% | residual activity [21] 90% | residual activity [22] 100% | residual activity [23] 100% | residual activity [24] 100% | residual activity [25] 100% | residual activity [26] 98% | residual activity [27] 100% | residual activity [28] 100% | residual activity [29] 99% | residual activity [30] 100% | residual activity [31] 51% | residual activity [32] 100%
